Results: BindingDB's records for patent US12247013 (Antabio, 2025)
pKi: −log10 of the molar value.

Target: Elastase (Pseudomonas aeruginosa (strain ATCC 15692 / DSM 22644 / CIP 104116 / JCM 14847 / LMG 12228 / 1C / PRS 101 / PAO1), UniProt P14756)
Experiment: Fluorometric Assay
Procedure: Method: 10 to 140 ng/ml purified LasB is incubated with 250 μM Abz-Ala-Gly-Leu-Ala-p-Nitro-Benzyl-Amide in 50 mM Tris-HCl pH 7.4, 2.5 mM CaCl2), 0.01% of Triton X100 at 37° C. LasB activity (corresponding to fluorescence emission induced by substrate hydrolysis) is measured over 30 min at 37° C. with a fluorescence plate reader such as the Perkin Elmer Envision or similar. Different range of inhibitor concentrations are routinely assessed depending of inhibitor potency from 0.0016 to 200 μM (2-fold dilutions series) in order to determine IC50.

Chain of Elastase (P14756 whole entry): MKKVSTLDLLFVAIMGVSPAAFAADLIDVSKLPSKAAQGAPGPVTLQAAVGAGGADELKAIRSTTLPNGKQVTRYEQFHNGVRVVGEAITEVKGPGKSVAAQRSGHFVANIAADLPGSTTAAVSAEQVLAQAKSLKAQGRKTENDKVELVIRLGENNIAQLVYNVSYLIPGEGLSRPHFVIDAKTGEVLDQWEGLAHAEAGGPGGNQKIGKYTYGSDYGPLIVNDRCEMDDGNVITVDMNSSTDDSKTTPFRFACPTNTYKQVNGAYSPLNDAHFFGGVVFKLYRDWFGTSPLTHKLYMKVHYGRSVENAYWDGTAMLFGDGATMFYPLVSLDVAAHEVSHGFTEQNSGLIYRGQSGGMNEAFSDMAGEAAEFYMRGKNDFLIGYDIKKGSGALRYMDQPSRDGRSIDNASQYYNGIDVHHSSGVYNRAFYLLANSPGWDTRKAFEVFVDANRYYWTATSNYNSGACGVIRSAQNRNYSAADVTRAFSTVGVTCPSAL

COc1cc2sc(CNC(=O)C3(CC(=O)O)Cc4cc(F)c(F)cc4C3)nc2cc1C(=O)N1CCN(C)CC1 [US12247013, Example 34]
pKi: > 7.30
